What all share (experiment): relative viability (nuclei count vs DMSO), 5 days (fraction); higher = more cells survive
Compound in the experiment “Kobe2602 + Alpelisib”: C1=CC(=CC=C1NC(=S)NNC2=C(C=C(C=C2[N+](=O)[O-])C(F)(F)F)[N+](=O)[O-])F [Kobe2602] + Cc1nc(NC(=O)N2CCC[C@H]2C(N)=O)sc1-c1ccnc(C(C)(C)C(F)(F)F)c1 [Alpelisib] (partner 2 µM)
In short, it runs like this: (§1)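 Lung cancer cell lines in 1536-well plates got either a single drug or a fixed anchor-drug dose together with five library-drug doses (not always all listed) in √10 steps, by pin tool, on the day after seeding. Nuclei were counted after 5 days, and relative viability is the treated-to-vehicle ratio of nuclei counts. Values are medians of duplicate plates.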

Compound in the experiment “Kobe2602 + Olaparib”: C1=CC(=CC=C1NC(=S)NNC2=C(C=C(C=C2[N+](=O)[O-])C(F)(F)F)[N+](=O)[O-])F [Kobe2602] + O=C(c1cc(Cc2n[nH]c(=O)c3ccccc23)ccc1F)N1CCN(C(=O)C2CC2)CC1 [Olaparib] (partner 8 µM)
In short, it runs like this: as §1

Compound in experiment [1]: COc1cc2nccc(Oc3ccc(NC(=O)C4(C(=O)Nc5ccc(F)cc5)CC4)cc3)c2cc1OC [Cabozantinib] + CC(=O)Nc1cccc(-n2c(=O)n(C3CC3)c(=O)c3c(Nc4ccc(I)cc4F)n(C)c(=O)c(C)c32)c1 [Trametinib] (partner 0.02 µM)
The method in brief:
as §1

Compound in the experiment “Cabozantinib + Lapatinib”: COc1cc2nccc(Oc3ccc(NC(=O)C4(C(=O)Nc5ccc(F)cc5)CC4)cc3)c2cc1OC [Cabozantinib] + CS(=O)(=O)CCNCc1ccc(-c2ccc3ncnc(Nc4ccc(OCc5cccc(F)c5)c(Cl)c4)c3c2)o1 [Lapatinib] (partner 2 µM)
In short, it runs like this: as §1

In the supplement of paper PMC10307832 one finds relative viability data, which are given here for four cell lines.

Regarding RERF-LC-KJ, the relative viability in the experiment with Kobe2602 + Alpelisib (first compound 0.2 µM) is 0.829; in the experiment with Kobe2602 + Alpelisib (first compound 0.6325 µM), 0.792; in the experiment with Kobe2602 + Alpelisib (first compound 2 µM), 0.742; with Kobe2602 + Alpelisib (first compound 6.325 µM) it was 0.865; with Kobe2602 + Alpelisib (first compound 20 µM), 0.779; with Kobe2602 + Olaparib (first compound 0.2 µM) it was 0.936. Besides, the relative viability with Kobe2602 + Olaparib (first compound 0.6325 µM) worked out at 0.957; in the experiment with Kobe2602 + Olaparib (first compound 2 µM), 0.9; with Kobe2602 + Olaparib (first compound 6.325 µM), 0.525; in the experiment with Kobe2602 + Olaparib (first compound 20 µM) it was 0.282; in experiment [1] (first compound 0.02 µM), 0.948; in experiment [1] (first compound 0.06325 µM), 0.815. Also, the relative viability is 0.781 in experiment [1] (first compound 0.2 µM); 0.811 in experiment [1] (first compound 0.6325 µM); 0.928 in experiment [1] (first compound 2 µM); 0.904 with Cabozantinib + Lapatinib (first compound 0.02 µM); 0.894 with Cabozantinib + Lapatinib (first compound 0.06325 µM); 0.784 with Cabozantinib + Lapatinib (first compound 0.2 µM). The relative viability was determined as 0.776 in the experiment with Cabozantinib + Lapatinib (first compound 0.6325 µM) and 0.815 with Cabozantinib + Lapatinib (first compound 2 µM).
Regarding SK-LU-1, the relative viability was found to be 1.03 in the experiment with Kobe2602 + Alpelisib (first compound 0.2 µM); 1.37 with Kobe2602 + Alpelisib (first compound 0.6325 µM); 0.968 with Kobe2602 + Alpelisib (first compound 2 µM); 0.948 with Kobe2602 + Alpelisib (first compound 6.325 µM); 0.977 with Kobe2602 + Alpelisib (first compound 20 µM); 0.463 with Kobe2602 + Olaparib (first compound 0.2 µM). The relative viability in the experiment with Kobe2602 + Olaparib (first compound 0.6325 µM) was determined as 0.471; in the experiment with Kobe2602 + Olaparib (first compound 2 µM), 0.494; with Kobe2602 + Olaparib (first compound 6.325 µM), 0.457; with Kobe2602 + Olaparib (first compound 20 µM), 0.523; in experiment [1] (first compound 0.02 µM) it was 0.475; in experiment [1] (first compound 0.06325 µM) it was 0.58. Moreover, the relative viability in experiment [1] (first compound 0.2 µM) is 0.623; in experiment [1] (first compound 0.6325 µM) it was 0.4; in experiment [1] (first compound 2 µM), 0.451; in the experiment with Cabozantinib + Lapatinib (first compound 0.06325 µM) it was 0.539; with Cabozantinib + Lapatinib (first compound 0.2 µM), 0.929; in the experiment with Cabozantinib + Lapatinib (first compound 0.6325 µM), 0.774. Also, the relative viability in the experiment with Cabozantinib + Lapatinib (first compound 2 µM) was 0.634.
Turning to SK-MES-1, the relative viability in the experiment with Kobe2602 + Alpelisib (first compound 0.2 µM) was determined as 0.817; in the experiment with Kobe2602 + Alpelisib (first compound 0.6325 µM), 0.955; with Kobe2602 + Alpelisib (first compound 2 µM) it was 0.844; in the experiment with Kobe2602 + Alpelisib (first compound 6.325 µM), 0.79; with Kobe2602 + Alpelisib (first compound 20 µM), 0.877; with Kobe2602 + Olaparib (first compound 0.2 µM) it was 0.674. Moreover, the relative viability with Kobe2602 + Olaparib (first compound 0.6325 µM) is 0.643; with Kobe2602 + Olaparib (first compound 2 µM), 0.635; with Kobe2602 + Olaparib (first compound 6.325 µM), 0.551; with Kobe2602 + Olaparib (first compound 20 µM), 0.281; in experiment [1] (first compound 0.02 µM), 0.605; in experiment [1] (first compound 0.06325 µM), 0.666. Also, the relative viability in experiment [1] (first compound 0.2 µM) turned out to be 0.615; in experiment [1] (first compound 0.6325 µM), 0.535; in experiment [1] (first compound 2 µM) it was 0.533; with Cabozantinib + Lapatinib (first compound 0.02 µM), 0.468; with Cabozantinib + Lapatinib (first compound 0.06325 µM), 0.497; with Cabozantinib + Lapatinib (first compound 0.2 µM) it was 0.42. Moreover, the relative viability with Cabozantinib + Lapatinib (first compound 0.6325 µM) was determined as 0.448; with Cabozantinib + Lapatinib (first compound 2 µM) it was 0.396.
Consider SW 1573, for which the relative viability amounted to 0.759 in the experiment with Kobe2602 + Alpelisib (first compound 0.2 µM); 0.792 in the experiment with Kobe2602 + Alpelisib (first compound 0.6325 µM); 0.677 with Kobe2602 + Alpelisib (first compound 2 µM); 0.622 with Kobe2602 + Alpelisib (first compound 6.325 µM); 0.736 in the experiment with Kobe2602 + Alpelisib (first compound 20 µM); 0.477 in the experiment with Kobe2602 + Olaparib (first compound 0.2 µM). The relative viability came to 0.416 with Kobe2602 + Olaparib (first compound 0.6325 µM); 0.306 with Kobe2602 + Olaparib (first compound 2 µM); 0.466 in the experiment with Kobe2602 + Olaparib (first compound 6.325 µM); 0.152 with Kobe2602 + Olaparib (first compound 20 µM); 0.57 in experiment [1] (first compound 0.02 µM); 0.631 in experiment [1] (first compound 0.06325 µM). Further, the relative viability in experiment [1] (first compound 0.2 µM) amounted to 0.588; in experiment [1] (first compound 0.6325 µM), 0.516; in experiment [1] (first compound 2 µM) it was 0.436; with Cabozantinib + Lapatinib (first compound 0.02 µM) it was 1.06; with Cabozantinib + Lapatinib (first compound 0.06325 µM), 1.03; with Cabozantinib + Lapatinib (first compound 0.2 µM), 1.23. Further, the relative viability with Cabozantinib + Lapatinib (first compound 0.6325 µM) came out at 1.23; in the experiment with Cabozantinib + Lapatinib (first compound 2 µM), 1.04.
